Experimental data reported in ChEMBL document CHEMBL4715866, “A Chemical Probe for Dark Kinase STK17B Derives Its Potency and High Selectivity through a Unique P-Loop Conformation” (J Med Chem, 2020).
In brackets after ≈: the same amount, converted by molar mass.

What was measured:
[1] = target: T1, Serine/threonine-protein kinase 17B (Homo sapiens, UniProt O94768)
T1 sequence (O94768 whole entry): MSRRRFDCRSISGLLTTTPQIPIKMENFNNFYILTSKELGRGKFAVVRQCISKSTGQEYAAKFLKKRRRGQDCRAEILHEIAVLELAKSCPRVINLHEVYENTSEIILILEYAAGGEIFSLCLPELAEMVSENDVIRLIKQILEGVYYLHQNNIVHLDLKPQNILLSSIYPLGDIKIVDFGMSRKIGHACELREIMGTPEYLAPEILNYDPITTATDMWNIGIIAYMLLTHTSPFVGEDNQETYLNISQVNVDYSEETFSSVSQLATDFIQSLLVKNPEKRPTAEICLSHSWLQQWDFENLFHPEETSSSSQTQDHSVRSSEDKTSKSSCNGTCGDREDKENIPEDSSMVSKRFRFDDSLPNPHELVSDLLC

[2] = target: T1, Serine/threonine-protein kinase 17B; experiment: Inhibition of N-terminal His-tagged STK17B kinase domain (25 to 329 residues) (unknown origin) expressed in Escherichia coli incubated for 90 mins by Kinase seeker split luciferase assay
[3] = target: T2, Serine/threonine-protein kinase 17A (Homo sapiens, UniProt Q9UEE5); experiment: Binding affinity to STK17A (unknown origin) by KINOMEscan scanMAX assay
T2 sequence (Q9UEE5 whole entry): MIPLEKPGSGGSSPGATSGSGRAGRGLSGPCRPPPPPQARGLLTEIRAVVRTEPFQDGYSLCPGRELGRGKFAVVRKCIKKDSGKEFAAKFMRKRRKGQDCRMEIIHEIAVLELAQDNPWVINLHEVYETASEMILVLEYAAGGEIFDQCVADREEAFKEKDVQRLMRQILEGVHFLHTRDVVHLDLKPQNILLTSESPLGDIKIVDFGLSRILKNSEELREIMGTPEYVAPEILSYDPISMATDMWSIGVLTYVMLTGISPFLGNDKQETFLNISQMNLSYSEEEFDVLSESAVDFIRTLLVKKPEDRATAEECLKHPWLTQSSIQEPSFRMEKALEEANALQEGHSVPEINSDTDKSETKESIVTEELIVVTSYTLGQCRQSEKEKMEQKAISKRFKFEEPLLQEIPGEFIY

[4] = Stability in mouse liver microsomes assessed as compound remaining at 0.1 mM in presence of NADPH regeneration system after 30 mins by LC-MS/MS analysis; type: ADME, Microsome; conditions: read-out: Stabilty
[5] = Kinetic solubility in pH 7.4 PBS; type: physicochemical; conditions: read-out: Kinetic_solubility
[6] = target: T1, Serine/threonine-protein kinase 17B; experiment: Binding affinity to N-terminal His-tagged STK17B kinase domain (25 to 329 residues) (unknown origin) expressed in Escherichia coli by KINOMEscan scanMAX assay
[7] = target: T2, Serine/threonine-protein kinase 17A; experiment: Inhibition of STK17A (unknown origin) incubated for 90 mins by Kinase seeker split luciferase assay
[8] = target: T3, Homeodomain-interacting protein kinase 4 (Homo sapiens, UniProt Q8NE63); experiment: Binding affinity to human HIPK4 by KINOMEscan scanMAX assay
T3 sequence (Q8NE63 whole entry): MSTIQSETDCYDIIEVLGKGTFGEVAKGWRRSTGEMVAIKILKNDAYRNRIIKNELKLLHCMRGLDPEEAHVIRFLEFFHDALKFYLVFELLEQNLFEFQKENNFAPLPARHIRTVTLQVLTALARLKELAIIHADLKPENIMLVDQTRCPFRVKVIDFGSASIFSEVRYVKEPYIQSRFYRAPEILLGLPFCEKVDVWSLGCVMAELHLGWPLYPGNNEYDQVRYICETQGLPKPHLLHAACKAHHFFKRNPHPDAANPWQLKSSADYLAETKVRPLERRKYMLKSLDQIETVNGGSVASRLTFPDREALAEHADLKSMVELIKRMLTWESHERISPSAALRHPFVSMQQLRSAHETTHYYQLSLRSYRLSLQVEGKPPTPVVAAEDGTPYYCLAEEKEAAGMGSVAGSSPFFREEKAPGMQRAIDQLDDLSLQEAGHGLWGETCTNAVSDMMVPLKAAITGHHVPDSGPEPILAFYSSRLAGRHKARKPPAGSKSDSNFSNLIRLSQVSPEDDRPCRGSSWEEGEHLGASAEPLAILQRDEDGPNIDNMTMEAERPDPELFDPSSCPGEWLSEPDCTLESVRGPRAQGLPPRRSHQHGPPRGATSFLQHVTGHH

## O=C(O)COc1ncnc2cc(-c3ccc(Cl)cc3)sc12
[1]
  IC50: > 10000 nM

## O=C(O)CSc1ncnc2cc(-c3ccc(Cl)cc3)sc12
[2]
  IC50: 39 nM
[1]
  IC50: 680 nM

## N#Cc1ccc(-c2cc3ncnc(SCC(=O)O)c3s2)cc1
[2]
  IC50: 35 nM
[1]
  IC50: 3200 nM

## CSc1ccc(-c2cc3ncnc(SCC(=O)O)c3s2)cc1
[3]
  Kd: 230 nM
[2]
  IC50: 20 nM
[4]
  remaining at 0.5 h, 100 µM: 0%
[5]
  solubility kinetic: 42 µg/mL (≈ 121 µM)
[1]
  IC50: 210 nM

## CC(=O)Nc1ccc(-c2cc3ncnc(SCC(=O)O)c3s2)cc1
[2]
  IC50: 23 nM
[1]
  IC50: > 10000 nM

## O=C(O)CSc1ncnc2cc(-c3ccc(C4CC4)cc3)sc12
[2]
  IC50: 62 nM
[4]
  remaining at 0.5 h, 100 µM: 66%
[5]
  solubility kinetic: 55 µg/mL (≈ 161 µM)
[1]
  IC50: 530 nM

## CC(=O)c1ccc(-c2cc3ncnc(SCC(=O)O)c3s2)cn1
[2]
  IC50: 37 nM
[1]
  IC50: > 10000 nM

## CC(C)Sc1ccc(-c2cc3ncnc(SCC(=O)O)c3s2)cc1
[2]
  IC50: 49 nM
[1]
  IC50: > 10000 nM

## O=C(O)CSc1ncnc2cc(-c3cccc(F)c3)sc12
[2]
  IC50: 49 nM
[1]
  IC50: 980 nM

## CCOC(=O)CNc1ncnc2cc(-c3ccc(SC)cc3)sc12
[1]
  IC50: > 10000 nM

## CC(=O)Nc1cccc(-c2cc3ncnc(SCC(=O)O)c3s2)c1
[2]
  IC50: 35 nM
[1]
  IC50: > 10000 nM

## CC(C)c1ccc(-c2cc3ncnc(SCC(=O)O)c3s2)cc1
[2]
  IC50: 59 nM
[4]
  remaining at 0.5 h, 100 µM: 35%
[5]
  solubility kinetic: 23 µg/mL (≈ 66.8 µM)
[1]
  IC50: 550 nM

## O=C(O)CSc1ncnc2cc(-c3ccc(F)c(F)c3)sc12
[2]
  IC50: 74 nM
[4]
  remaining at 0.5 h, 100 µM: 95%
[5]
  solubility kinetic: 65 µg/mL (≈ 192 µM)
[1]
  IC50: 820 nM

## COc1ccccc1-c1cc2ncnc(SCC(=O)O)c2s1
[2]
  IC50: 110 nM
[4]
  remaining at 0.5 h, 100 µM: 24%
[5]
  solubility kinetic: 69 µg/mL (≈ 208 µM)
[1]
  IC50: 1700 nM

## COc1cccc(-c2cc3c(SCC(=O)O)ncnc3s2)c1
[1]
  IC50: > 10000 nM

## CCc1ccc(-c2cc3ncnc(SCC(=O)O)c3s2)cc1
[2]
  IC50: 41 nM
[1]
  IC50: 380 nM

## O=C(O)CSc1ncnc2cc(-c3ccc(N4CCOCC4)cc3)sc12
[2]
  IC50: 14 nM
[4]
  remaining at 0.5 h, 100 µM: 63%
[5]
  solubility kinetic: 61 µg/mL (≈ 157 µM)
[1]
  IC50: 720 nM

## CSc1ccc(-c2cc3c(SCC(=O)O)ncnc3s2)cc1
[1]
  IC50: > 10000 nM

## CSc1ccc(-c2cc3ncnc(SCC(=O)O)c3s2)cc1F
[2]
  IC50: 27 nM
[4]
  remaining at 0.5 h, 100 µM: 18%
[5]
  solubility kinetic: 52 µg/mL (≈ 142 µM)
[1]
  IC50: 530 nM

## O=C(O)CSc1ncnc2cc(-c3ccc(Cl)c(Cl)c3)sc12
[2]
  IC50: 92 nM
[1]
  IC50: 310 nM

## COc1ccc(-c2cc3c(SCC(=O)O)ncnc3s2)cc1
[1]
  IC50: > 10000 nM

## O=C(O)CSc1ncnc2sc(-c3ccc(Cl)c(Cl)c3)cc12
[1]
  IC50: > 10000 nM

## CC(=O)c1ccc(-c2cc3ncnc(SCC(=O)O)c3s2)cc1
[2]
  IC50: 13 nM
[1]
  IC50: 1500 nM

## CCOC(=O)COc1ncnc2cc(-c3ccc(Cl)cc3)sc12
[1]
  IC50: > 10000 nM

## COc1ccc(-c2cc3ncnc(SCC(=O)O)c3s2)cc1F
[2]
  IC50: 18 nM
[4]
  remaining at 0.5 h, 100 µM: 88%
[5]
  solubility kinetic: 49 µg/mL (≈ 140 µM)
[1]
  IC50: 700 nM

## CSc1ccc(-c2cc3ncnc(NCC(=O)O)c3s2)cc1
[1]
  IC50: > 10000 nM

## O=C(O)CSc1ncnc2sc(-c3cc4ccccc4s3)cc12
[3]
  Kd: 9800 nM
[6]
  Kd: 910 nM
[2]
  IC50: 4800 nM
[7]
  IC50: > 10000 nM
[8]
  Kd: 290 nM
[1]
  IC50: > 10000 nM

## O=C(O)CSc1ncnc2cc(-c3cccc(N4CCOCC4)c3)sc12
[2]
  IC50: 83 nM
[4]
  remaining at 0.5 h, 100 µM: 73%
[5]
  solubility kinetic: 54 µg/mL (≈ 139 µM)
[1]
  IC50: 2900 nM

## CSc1ccc(-c2cc3ncnc(SCC(N)=O)c3s2)cc1
[1]
  IC50: > 10000 nM

## CCOC(=O)c1ccc(-c2cc3ncnc(SCC(=O)O)c3s2)cc1
[2]
  IC50: 40 nM
[4]
  remaining at 0.5 h, 100 µM: 0%
[5]
  solubility kinetic: 59 µg/mL (≈ 158 µM)
[1]
  IC50: 870 nM

## O=C(O)CSc1ncnc2cc(-c3ccc(C(F)(F)F)cc3)sc12
[2]
  IC50: 33 nM
[4]
  remaining at 0.5 h, 100 µM: 88%
[5]
  solubility kinetic: 57 µg/mL (≈ 154 µM)
[1]
  IC50: 340 nM

## O=C(O)CSc1ncnc2cc(-c3cccc(OC(F)(F)F)c3)sc12
[2]
  IC50: 280 nM
[1]
  IC50: 500 nM

## O=C(O)CSc1ncnc2cc(-c3ccccc3F)sc12
[2]
  IC50: 60 nM
[4]
  remaining at 0.5 h, 100 µM: 45%
[5]
  solubility kinetic: 51 µg/mL (≈ 159 µM)
[1]
  IC50: 1200 nM

## CSc1cccc(-c2cc3ncnc(SCC(=O)O)c3s2)c1
[2]
  IC50: 49 nM
[1]
  IC50: 500 nM

## O=C(O)CSc1ncnc2cc(-c3cccs3)sc12
[2]
  IC50: 63 nM
[4]
  remaining at 0.5 h, 100 µM: 47%
[5]
  solubility kinetic: 56 µg/mL (≈ 182 µM)
[1]
  IC50: 650 nM

## COc1ccccc1-c1cc2c(SCC(=O)O)ncnc2s1
[2]
  IC50: 880 nM
[1]
  IC50: > 10000 nM

## O=C(O)CSc1ncnc2cc(-c3ccc(OCc4ccccc4)cc3)sc12
[2]
  IC50: 110 nM
[1]
  IC50: > 10000 nM

## C=Cc1ccc(-c2cc3ncnc(SCC(=O)O)c3s2)cc1
[2]
  IC50: 28 nM
[4]
  remaining at 0.5 h, 100 µM: 38%
[5]
  solubility kinetic: 74 µg/mL (≈ 225 µM)
[1]
  IC50: 120 nM

## C[S+]([O-])c1ccc(-c2cc3ncnc(SCC(=O)O)c3s2)cc1 (stereo not drawn)
[2]
  IC50: 7 nM
[1]
  IC50: > 10000 nM

## CSc1cccc(-c2cc3c(SCC(=O)O)ncnc3s2)c1
[1]
  IC50: > 10000 nM
